The target in test [1] is T1, Histidine decarboxylase (Homo sapiens) (UniProt P19113).
T1 sequence (whole entry): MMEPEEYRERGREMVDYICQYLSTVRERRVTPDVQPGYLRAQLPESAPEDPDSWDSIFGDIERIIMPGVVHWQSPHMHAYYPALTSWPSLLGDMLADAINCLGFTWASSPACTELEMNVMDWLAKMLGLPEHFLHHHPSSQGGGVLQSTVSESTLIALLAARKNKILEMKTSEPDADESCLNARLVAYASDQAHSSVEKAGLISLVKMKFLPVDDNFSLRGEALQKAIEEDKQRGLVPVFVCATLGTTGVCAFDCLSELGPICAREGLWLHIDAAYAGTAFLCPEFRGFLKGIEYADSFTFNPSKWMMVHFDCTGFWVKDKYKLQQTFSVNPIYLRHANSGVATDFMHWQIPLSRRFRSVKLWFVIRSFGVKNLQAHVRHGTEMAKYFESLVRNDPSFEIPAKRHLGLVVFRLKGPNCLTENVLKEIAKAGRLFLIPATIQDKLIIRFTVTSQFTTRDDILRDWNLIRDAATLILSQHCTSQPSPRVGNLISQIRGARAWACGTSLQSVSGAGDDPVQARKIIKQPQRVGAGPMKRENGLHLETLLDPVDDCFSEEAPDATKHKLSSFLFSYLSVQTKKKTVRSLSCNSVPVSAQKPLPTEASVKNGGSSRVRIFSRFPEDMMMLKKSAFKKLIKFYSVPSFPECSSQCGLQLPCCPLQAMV
The test is described as follows: Inhibition of recombinant human HDC (1 to 512 residues) expressed in Escherichia coli BL21 (DE3) pLysS assessed as reduction in [14C]CO2 production from L-[U-14C]histidine at 10 uM relative to untreated control.

Test [2] deals with Homo sapiens. The experiment in a line: Improvement in disease symptoms in GERD patient assessed as reduction in cough at 10 mg dosed daily. The format is functional, organism-based.
The subject of test [3] is Homo sapiens. The experiment in a line: Improvement in disease symptoms in GERD patient assessed as reduction in heartburns at 10 mg dosed daily. The class given is functional, organism-based.
For test [4], the system named is Homo sapiens. The test is described as follows: Improvement in disease symptoms in GERD patient assessed as reduction in regurgitation at 10 mg dosed daily. The class given is functional, organism-based.
Test [5] deals with Homo sapiens. The experiment in a line: Improvement in disease symptoms in GERD patient assessed as improvement in global disease scores at 10 mg dosed daily. The format is functional, organism-based.

The structures appear in SMILES notation. Active and inactive are the calls of the source. No cut-off for these calls is given here.

The inhibition is the share of the control response that was lost under treatment.

Turning to `CCOc1c(N)c2c(c(OCC)c1OCC)C(C1c3c(cc4c(c3OC)OCO4)CCN1C)OC2=O` (racemic), in test [1], the inhibition worked out at 17.5%.

Turning to `CCOC(=O)N1CCC(=C2c3ccc(Cl)cc3CCc3cccnc32)CC1`, the result in the test with Homo sapiens [2], with Homo sapiens [3], in the test on Homo sapiens [4] and in the test on Homo sapiens [5] was inactive.

These data come from ChEMBL document CHEMBL4476877, “Treatment of COPD, gastro-esophageal reflux disease (GERD), food allergies and other gastrointestinal conditions and disorders ameliorated by proper histamine management using a combination of histidine decarboxylase inhibitors, LRA drugs, anti-H1 and/or anti-H2 drugs” (2012).
